{
  "source": "patent US20100227841A1",
  "about": "“Patient populations and treatment methods” (Harbor BioSciencs, Inc., priority 2008, published 2010)",
  "key": {"[1]": {"system": "RAW264.7 macrophage cells", "assay": "Macrophage chemotaxis assay with 3T3-L1 adipocyte conditioned medium", "assay_type": "cell-based", "details": "p<0.05", "method": "The macrophage chemotaxis assay was conducted with differentiated 3T3-L1 adipocytes (day +11 post differentiation) incubated for 24 hours with compounds (10 ng/mL TNFα with or without 100 nM 17α-ethynylandrost-5-ene-3β,7β,17β-triol) or vehicle in DMEM with 0.2% FFA- and endotoxin-free BSA. Conditioned medium (CM) was collected and kept frozen in single-use aliquots. For the chemotaxis assay, 600 μl/well of adipocyte CM was aliquoted into 24-well tissue culture plates. 2×10^5 RAW264.7 macrophage cells resuspended in DMEM containing 0.2% BSA were plated in the upper transwell chamber ([…], 24-transwell format; Corning, Lowell, Mass.). After 3 hours of migration, the RAW264.7 cells were fixed in formalin and stained with DAPI. Cells in the upper chamber that had not migrated were removed. Cells found on the filter facing the lower chamber were counted as cells having performed chemotaxis and quantified with the Simple PCI imaging software (Compix Inc., Cranberry Township, Pa.)."}, "female NOD mice": {"system": "female NOD mice", "assay": "Spontaneous autoimmune diabetes in non-obese diabetic (NOD) mouse model", "assay_type": "in vivo", "details": "for Insulitis Score/Islet (H&E) / β-Cell Score/Islet (Insulin): scale of 0 to 3", "description": "Treatment of spontaneous autoimmune diabetes in non-obese diabetic (NOD) mouse model. The NOD model is used as an animal model for human type 1 diabetes. The NOD mouse strain spontaneously develops autoimmune (type 1) diabetes by a process that has similarities to human type 1 diabetes mellitus, e.g., immune-mediated selective destruction of the pancreatic islet 13-cells that produce insulin (M. A. Atkinson and N. K. Maclaren, New England J. Medicine, 331:1428-1436 1994). There is a higher incidence of diabetes (i.e., hyperglycemia, glucosuria, and hypoinsulinemia) in female vs. male NOD mice (80-90% vs. 10-20%, respectively). Disease incidence in this animal model is first observed at approximately 12 to 15 weeks of age with maximum incidence usually peaking 5 to 6 weeks later.\nMethods. An oral formulation containing 17α-ethynylandrost-5-ene-3β,7β,17β-triol in 30% w/v β-cyclodextrin sulfobutyl ether sodium salt (Captisol®; CyDex, Inc., Overland Park, Kans.) was used. Six-week old female NOD mice (approximately 20-25 grams) were purchased from The Jackson Laboratories (Bar Harbor, Me.) and housed in a vivarium under pathogen-free conditions. The animals were acclimated for at least one week prior to initiation of oral dosing with 17α-ethynylandrost-5-ene-3β,7β,17β-triol. Animals were randomized into 5 per cage upon receipt and cages were subsequently randomized into dosing groups.\nFemale NOD mice were treated once daily with vehicle, 17α-ethynylandrost-5-ene-3β,7β,17β-triol (20 or 80 mg/kg in 100 μL, p.o.), or dexamethasone (0.25 mg/kg, 100 μL, i.p.) from 15 to 25 weeks of age (i.e., before the first incidence of diabetes; at the University of Catania), from 13 to 19 weeks of age (2 days after the first incidence of diabetes), or from 12 to 26 weeks of age (9 days after the first incidence of diabetes). Blood glucose was monitored using glucometers (ENCORE Glucometer, Bayer Corp., Elkhart, Ind.) at weekly intervals, beginning at 10 weeks of age. Mice with blood glucose levels 200 mg/dL on two consecutive occasions were considered diabetic. The percentage of animals with diabetes over the course of the experiment was monitored.\nHistological assessment of insulitis and functional 13-cell content was assessed at the time of disease diagnosis or at the end of the 26-week study (i.e., disease-free mice). Pancreata (after CO2 euthanasia) were immediately isolated and placed in 10% buffered formalin at room temperature overnight, and then embedded in paraffin. After de-paraffinizing, pancreas samples were rehydrated and 5 μm sections were prepared and fixed on glass slides. Some sections were stained with hematoxylin and eosin (H&E) while others were stained with anti-insulin antibody as follows; prepared sections were immersed in Tris-Buffered Saline (TBS: 10 mM Tris buffer, pH 7.4, 0.15 M NaCl) containing 1% of bovine serum albumin (BSA) and 5% normal goat serum for 2 h at room temperature followed by incubation with 2 μg/mL rat anti-insulin IgG2a monoclonal antibody (MAB1417; R&D Systems, Minneapolis, Minn.) in TBS/1% BSA overnight at 4° C. in a humidified chamber. After washing with TBS/0.5 Tween-20, sections were covered with biotinylated anti-rat IgG secondary antibody (BD biosciences, 1:1,000) for 1 h at room temperature, followed by washing with TBS/Tween-20 and incubation with streptavidin-horseradish peroxidase for 30 min. Sections were then incubated with chromogen substrate, DAB (BD Biosciences), for 5 min and counterstained with hematoxylin. The degree of insulitis (leukocyte infiltration per islet; H&E) and functional 13-cell content per islet (insulin production) was scored using a scale of 0 to 3 in which 0=none, 1=few, 2=moderate, 3=high content of inflammatory cells or functional β-cells. Pancreata that were scored were obtained from a randomly-selected portion of mice from each cohort and scores were reported as the mean±SEM for each cohort."}, "[2]": {"details": "TNFα-treated adipocyte CM, adipocytes pretreated"}},
  "data": [
    {"compound": "C#C[C@]1(O)CC[C@H]2[C@@H]3[C@@H](O)C=C4C[C@@H](O)CC[C@]4(C)[C@H]3CC[C@@]21C", "note": "[17α-ethynylandrost-5-ene-3β,7β,17β-triol]", "values": [
      {"measurement": "macrophage secretion of CCL5/RANTES", "setting": "[1]; [2]", "result": "significantly decreased"},
      {"measurement": "macrophage secretion of MCP-1/CCL2", "setting": "[1]; [2]", "result": "significantly decreased"},
      {"measurement": "reduction of macrophage migration stimulated by CM from TNFα-treated adipocytes", "setting": "[1]; adipocytes pretreated with 100 nM", "result": "~30", "unit": "%"},
      {"measurement": "Disease Incidence", "setting": "female NOD mice; 20 mg/kg p.o. once daily", "result": "0.78 ± 0.15"},
      {"measurement": "No. Islets/pancreas (H&E)", "setting": "female NOD mice; 20 mg/kg p.o. once daily", "result": "2.4 ± 0.9"},
      {"measurement": "Insulitis Score/Islet (H&E)", "setting": "female NOD mice; 20 mg/kg p.o. once daily", "result": "2.5 ± 0.3"},
      {"measurement": "β-Cell Score/Islet (Insulin)", "setting": "female NOD mice; 20 mg/kg p.o. once daily", "result": "1.5 ± 0.4"},
      {"measurement": "effect on disease incidence", "setting": "female NOD mice; 20 mg/kg, differs from 80 mg/kg, p=0.009 Fischer's Exact test", "result": "ineffective"},
      {"measurement": "Disease Incidence", "setting": "female NOD mice; 80 mg/kg p.o. once daily", "result": "0.17 ± 0.17"},
      {"measurement": "No. Islets/pancreas (H&E)", "setting": "female NOD mice; 80 mg/kg p.o. once daily", "result": "8.0 ± 3.1"},
      {"measurement": "Insulitis Score/Islet (H&E)", "setting": "female NOD mice; 80 mg/kg p.o. once daily", "result": "0.8 ± 0.4"},
      {"measurement": "β-Cell Score/Islet (Insulin)", "setting": "female NOD mice; 80 mg/kg p.o. once daily", "result": "2.6 ± 0.4"},
      {"measurement": "progressive increase in disease incidence", "setting": "female NOD mice; 80 mg/kg single daily oral doses started 2 days or 9 days after first incidence of diabetes", "result": "suppressed"},
      {"measurement": "disease incidence relative to vehicle, meta-analysis across all studies", "setting": "female NOD mice; 80 mg/kg, p=0.007 Fischer's Exact test", "result": "significant decrease"},
      {"measurement": "mean±SEM body weights", "setting": "female NOD mice; Week 25, 20 mg/kg", "result": "24.6 ± 0.8", "unit": "g"},
      {"measurement": "mean±SEM body weights", "setting": "female NOD mice; Week 25, 80 mg/kg", "result": "24.7 ± 0.3", "unit": "g"},
      {"measurement": "first incidence of diabetes", "setting": "female NOD mice; week 19, once daily treatment from 15 to 25 weeks of age (vehicle 25%)", "result": 8, "unit": "%"},
      {"measurement": "mean±SEM body weights", "setting": "female NOD mice; week 31, end of study", "result": "24.3 ± 0.6", "unit": "g"},
      {"measurement": "maximum disease incidence during treatment", "setting": "female NOD mice; weeks 23 through 25 (vehicle 66%), p<0.05 Chi-Squared test", "result": 25, "unit": "%"}
    ]}
  ]
}
